Here are results for 24 molecules from US20190185479A1, “BICYCLIC NITROGENATED HETEROCYCLIC COMPOUND” (MITSUBISHI TANABE PHARMA CORPORATION, priority 2016, published 2019).

Holding throughout (assay type): biochemical
One experiment addresses T1, Human PDE7B (hPDE7B) (Homo sapiens, UniProt Q9NP56).
T1 construct: made in house; host or cells: COS-7 cells
Description: Measurement of PDE7 inhibitory activity (Experimental Example 1; residual cAMP, LANCE Ultra cAMP TR-FRET). To be noted: cAMP 3 nmol/L, room temperature 60 minutes. Summed up:
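hPDE7B from transfected COS-7 cells reacted with 3 nmol/L cAMP (final) and compound (2% DMSO) in 50 mmol/L Tris-HCl pH 7.5, 1 mmol/L MgCl2, 0.1% BSA, 0.5 mmol/L DTT, 60 min at room temperature. Reaction stopped with IBMX; residual cAMP measured by TR-FRET. Inhibition scaled between no-compound and no-enzyme controls.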

A further experiment addresses T2, hPDE4D (Homo sapiens, UniProt Q08499).
T2 construct: purchased SB Drug Discovery
Description: PDE4 inhibition assay (IC50), Experimental Example 3. The settings on record: for IC50: hPDE4D, read-out: PDE inhibition assay IC50, PDE4; for inhibition at 1 µM: at 1 μmol/L. Here is the method:
(§1) PDE7 inhibitory assay was carried out by reacting the mixture of a compound, hPDE7B, and cAMP, and measuring the residual cAMP by a detection method using LANCE (registered trademark) Ultra cAMP Detection Kit (ParkinElmer). The compound was dissolved in DMSO, and diluted so that the concentration would become 50 times of the final concentration. The hPDE7B and cAMP were diluted with an assay buffer (50 mmol/L Tris-HCl, 1 mmol/L MgCl2, 0.1% BSA, 0.5 mmol/L DTT, pH7.5) so that the hPDE7B would have an appropriate enzyme activity and the concentration of cAMP would become 6 nmol/L. To a 96 well plate were added the compound (2 μL) (DMSO final concentration: 2%), hPDE7B (48 μL), and cAMP (50 μL) (concentration at the reaction: 3 nmol/L), and the resulting mixture was reacted at room temperature for 60 minutes. The reaction solution (20 μL) was subjected to a TR-FRET method according to the protocol specified by the kit to measure the concentration of the residual cAMP. In the assay, to a tracer solution specified by the kit was added 0.5 mmol/L of 3-isobutyl-1-methylxanthine (IBMX, nonselective PDE inhibitor) in order to stop the PDE enzyme reaction after the completion of reaction until the measurement.
(§2) The prediction of PDE7 selectivity was evaluated by comparing each IC50 value of a compound against PDE4, 8, and 10 with the IC50 value of said compound against PDE7B.
(§3) hPDE4D, hPDE8B, and hPDE10A were prepared by the same method as [Method for preparing samples 2].
(§4) PDE4, 8, and 10 inhibitory assays were carried out by the same method as [Assay procedure 1].
(§5) The reaction without a compound wad defined as “0% inhibition”, the reaction without each PDE was defined as “100% inhibition”, and the calculation of IC50 value was carried out by the same method as <Method for data calculation 1>.

In the next experiment the target is T3, hPDE8B (Homo sapiens, UniProt O95263).
T3 construct: purchased SB Drug Discovery
T3 sequence (O95263 whole entry): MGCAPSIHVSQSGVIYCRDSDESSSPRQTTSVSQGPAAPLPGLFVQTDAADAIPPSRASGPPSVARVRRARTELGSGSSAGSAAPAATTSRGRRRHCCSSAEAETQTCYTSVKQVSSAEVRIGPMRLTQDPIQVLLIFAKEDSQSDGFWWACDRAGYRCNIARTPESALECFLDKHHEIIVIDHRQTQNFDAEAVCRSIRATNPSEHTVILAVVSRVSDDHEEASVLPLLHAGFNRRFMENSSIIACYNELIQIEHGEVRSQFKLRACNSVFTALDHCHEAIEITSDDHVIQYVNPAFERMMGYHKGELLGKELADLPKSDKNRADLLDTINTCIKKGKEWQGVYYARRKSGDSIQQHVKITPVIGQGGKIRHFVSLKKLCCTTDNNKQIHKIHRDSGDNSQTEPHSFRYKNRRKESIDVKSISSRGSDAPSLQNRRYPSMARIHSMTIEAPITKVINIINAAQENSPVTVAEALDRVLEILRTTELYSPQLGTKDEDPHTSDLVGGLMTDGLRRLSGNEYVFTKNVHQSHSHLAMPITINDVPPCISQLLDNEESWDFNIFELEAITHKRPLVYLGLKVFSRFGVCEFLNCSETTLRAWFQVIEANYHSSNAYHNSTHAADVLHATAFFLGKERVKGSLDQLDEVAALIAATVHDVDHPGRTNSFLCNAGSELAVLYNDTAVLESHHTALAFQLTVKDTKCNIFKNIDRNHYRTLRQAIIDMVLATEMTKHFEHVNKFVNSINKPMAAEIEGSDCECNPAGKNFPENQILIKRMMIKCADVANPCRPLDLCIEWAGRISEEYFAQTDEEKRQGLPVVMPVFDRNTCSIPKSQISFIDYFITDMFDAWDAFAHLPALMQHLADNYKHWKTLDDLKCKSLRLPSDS
Briefly: PDE8 inhibition assay (IC50), Experimental Example 3. To be noted: for IC50: hPDE8B, read-out: PDE inhibition assay IC50, PDE8; for inhibition at 1 µM: read-out: inhibition rate (%) at prescribed concentration, PDE8. Summed up: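 Recombinant human enzymes incubated with compound and 3 nmol/L cAMP (final) in Tris-HCl pH 7.5 buffer with MgCl2, BSA, DTT, 2% DMSO final, 60 min at room temperature. Residual cAMP measured by TR-FRET (LANCE Ultra), reaction stopped with 0.5 mmol/L IBMX. IC50 from inhibition relative to no-compound (0%) and no-enzyme (100%) controls.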

Another experiment concerns the target hPDE10A (Homo sapiens, UniProt Q9Y233). Description: PDE10 inhibition assay (IC50), Experimental Example 3. To be noted: for IC50: hPDE10A, read-out: PDE inhibition assay IC50, PDE10; for inhibition at 10 µM: at 10 μmol/L, read-out: inhibition rate (%) at prescribed concentration, PDE10. As for the experimental part:
as §1, §2, §3, §4, §5

Where [1] appears, read: read-out: inhibition rate (%) at prescribed concentration, PDE4.

A value given as a limit tells only on which side of the number the result lay.

T1 sequence (Q9NP56 whole entry): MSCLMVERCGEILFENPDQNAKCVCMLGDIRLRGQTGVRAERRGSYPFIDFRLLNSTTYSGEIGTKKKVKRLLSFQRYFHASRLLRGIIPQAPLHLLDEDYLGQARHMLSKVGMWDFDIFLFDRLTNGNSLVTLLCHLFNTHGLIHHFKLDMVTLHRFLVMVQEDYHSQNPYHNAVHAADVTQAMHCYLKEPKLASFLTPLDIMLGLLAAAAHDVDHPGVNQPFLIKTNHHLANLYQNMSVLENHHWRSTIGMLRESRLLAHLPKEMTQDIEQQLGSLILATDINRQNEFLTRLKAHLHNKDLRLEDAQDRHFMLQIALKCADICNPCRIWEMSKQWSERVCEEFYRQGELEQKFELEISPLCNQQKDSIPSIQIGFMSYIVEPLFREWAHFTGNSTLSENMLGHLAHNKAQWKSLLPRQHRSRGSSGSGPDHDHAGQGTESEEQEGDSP
hPDE10A, sequence (Q9Y233 290-1055 limits assumed): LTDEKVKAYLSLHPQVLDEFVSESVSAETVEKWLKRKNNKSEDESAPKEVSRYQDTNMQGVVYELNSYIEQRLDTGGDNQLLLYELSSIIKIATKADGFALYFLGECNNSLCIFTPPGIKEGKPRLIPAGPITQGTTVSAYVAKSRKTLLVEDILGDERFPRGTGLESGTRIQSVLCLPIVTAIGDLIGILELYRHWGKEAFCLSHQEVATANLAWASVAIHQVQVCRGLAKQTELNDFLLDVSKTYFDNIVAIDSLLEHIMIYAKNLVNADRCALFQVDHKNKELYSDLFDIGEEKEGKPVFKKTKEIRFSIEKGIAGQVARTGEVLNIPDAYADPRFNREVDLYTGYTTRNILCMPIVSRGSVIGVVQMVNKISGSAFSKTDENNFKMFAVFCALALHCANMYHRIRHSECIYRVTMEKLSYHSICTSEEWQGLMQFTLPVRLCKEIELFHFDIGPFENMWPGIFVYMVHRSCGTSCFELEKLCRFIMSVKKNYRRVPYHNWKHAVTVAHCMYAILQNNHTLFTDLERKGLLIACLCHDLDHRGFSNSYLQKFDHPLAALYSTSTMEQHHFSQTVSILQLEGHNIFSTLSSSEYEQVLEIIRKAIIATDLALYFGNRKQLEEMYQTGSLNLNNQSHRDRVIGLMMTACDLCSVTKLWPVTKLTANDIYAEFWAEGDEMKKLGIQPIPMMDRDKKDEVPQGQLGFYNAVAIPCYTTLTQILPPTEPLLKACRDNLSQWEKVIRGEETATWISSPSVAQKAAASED
T2 sequence (Q08499 whole entry): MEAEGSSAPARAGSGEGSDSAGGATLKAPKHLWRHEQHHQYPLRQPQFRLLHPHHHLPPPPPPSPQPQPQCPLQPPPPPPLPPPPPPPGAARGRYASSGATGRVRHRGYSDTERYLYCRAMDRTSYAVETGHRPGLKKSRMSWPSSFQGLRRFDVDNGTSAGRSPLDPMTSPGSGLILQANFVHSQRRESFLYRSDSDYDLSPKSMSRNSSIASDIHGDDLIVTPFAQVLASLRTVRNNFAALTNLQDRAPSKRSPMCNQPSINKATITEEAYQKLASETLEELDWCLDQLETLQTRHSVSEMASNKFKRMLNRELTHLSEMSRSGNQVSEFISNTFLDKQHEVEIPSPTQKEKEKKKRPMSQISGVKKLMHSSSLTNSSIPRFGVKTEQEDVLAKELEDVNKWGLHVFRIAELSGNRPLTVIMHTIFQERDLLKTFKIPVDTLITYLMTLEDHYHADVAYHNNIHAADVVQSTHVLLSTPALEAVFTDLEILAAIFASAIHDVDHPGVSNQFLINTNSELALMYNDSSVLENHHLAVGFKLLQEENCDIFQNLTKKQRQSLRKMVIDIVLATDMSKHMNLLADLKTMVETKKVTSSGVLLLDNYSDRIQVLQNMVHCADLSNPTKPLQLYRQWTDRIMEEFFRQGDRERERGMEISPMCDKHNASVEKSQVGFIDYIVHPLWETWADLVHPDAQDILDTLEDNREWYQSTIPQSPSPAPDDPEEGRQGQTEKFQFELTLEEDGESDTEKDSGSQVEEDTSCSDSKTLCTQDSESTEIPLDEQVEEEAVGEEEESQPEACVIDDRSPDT

In the case of `CC1CC(C)CN(c2nnc3c(N)nccn23)C1` (single isomer, unassigned) [Example 226, 3-[trans-3,5-dimethylpiperidin-1-yl][1,2,4]triazolo[4,3-a]pyrazin-8-amine], the half-maximal inhibitory concentration (IC50) against Human PDE7B (hPDE7B) was 0.01 µM; at hPDE4D, 3.6 µM; at hPDE8B it was 4.2 µM; at hPDE10A it was 5.2 µM.
Take `CC1CCN(c2nnc3c(N)nccn23)CC1C` (single isomer, unassigned) [Example 230, 3-(3,4-dimethylpiperidin-1-yl) [1,2,4]triazolo[4,3-a]pyrazin-8-amine]: the half-inhibitory concentration (IC50) against Human PDE7B (hPDE7B) stood at 0.08 µM; on hPDE4D, 4 µM; on hPDE8B, 2.9 µM; at hPDE10A it was 19.6 µM.
For `CC1CCN(c2nnc3c(N)nccn23)CC1C` (single isomer, unassigned) [Example 231, 3-(3,4-dimethylpiperidin-1-yl) [1,2,4]triazolo[4,3-a]pyrazin-8-amine], in that order: 0.01 µM, 3.6 µM, 2.1 µM and 4.8 µM.
For `CC1CCC(C)N(c2nnc3c(N)nccn23)C1` (single isomer, unassigned) [Example 232, 3-(2,5-dimethylpiperidin-1-yl) [1,2,4]triazolo[4,3-a]pyrazin-8-amine], in that order: 0.003 µM, 1.4 µM, 4.6 µM and 0.35 µM.
For `CC1CCC(C)N(c2nnc3c(N)ncc(C#N)n23)C1` (single isomer, unassigned) [Example 234, 8-amino-3-(2,5-dimethylpiperidin-1-yl) [1,2,4]triazolo[4,3-a]pyrazine-5-carbonitrile], in that order: 0.00015 µM, 6.3 µM, 2.7 µM and 3.2 µM.
Turning to `CC1CCC(C)(C)CN1c1nnc2c(N)nccn12` (single isomer, unassigned) [Example 236, 3-(2,5,5-trimethylpiperidin-1-yl) [1,2,4]triazolo[4,3-a]pyrazin-8-amine], the concentration for half-maximal inhibition (IC50) is 0.033 µM at Human PDE7B (hPDE7B), 0.036 µM on hPDE4D, 0.86 µM on hPDE8B and 0.16 µM on hPDE10A.
In the case of `CC1CCCCC1c1nnc2c(N)ncnn12` (single isomer, unassigned) [Example 238, 3-(cis-2-methylcyclohexyl) [1,2,4]triazolo[3,4-f][1,2,4]triazin-8-amine], the values for the half-maximal inhibitory concentration (IC50) against Human PDE7B (hPDE7B) and at hPDE10A were less than 0.01 µM and 1.9 µM, respectively. The inhibition at 1 µM at hPDE4D (setting [1]) came to 63%; at hPDE8B (at 1 μmol/L), 51%.
For the molecule `CC1CCCC(c2nnc3c(N)ncnn23)C1` (single isomer, unassigned) [Example 240, 3-(cis-3-methylcyclohexyl) [1,2,4]triazolo[3,4-f][1,2,4]triazin-8-amine], the IC50 at Human PDE7B (hPDE7B) is less than 0.01 µM; at hPDE10A, 3.1 µM. Further, the inhibition at 1 µM on hPDE4D (setting [1]) stood at 86%. In addition, the “inhibition rate (%) at prescribed concentration, PDE8” value on hPDE8B (at 1 μmol/L) turned out to be 95% at 1.
With `CC1(C)CCCC(c2nnc3c(N)ncnn23)C1` (single isomer, unassigned) [Example 242, 3-(3,3-dimethylcyclohexyl) [1,2,4]triazolo[3,4-f][1,2,4]triazin-8-amine], the concentration for half-maximal inhibition (IC50) was less than 0.01 µM against Human PDE7B (hPDE7B) and 2.86 µM on hPDE10A. Moreover, the figures for the inhibition at 1 µM on hPDE4D (setting [1]) and at hPDE8B (at 1 μmol/L) were 53% and 84%, respectively.
Take `Nc1ncnn2c(C3CCCC(C(F)(F)F)C3)nnc12` (single isomer, unassigned) [Example 244, 3-[cis-3-(trifluoromethyl)cyclohexyl][1,2,4]triazolo[3,4-f][1,2,4]triazin-8-amine]: the concentration for half-maximal inhibition (IC50) was less than 0.01 µM on Human PDE7B (hPDE7B), 1.6 µM at hPDE4D and 52.6 µM at hPDE10A. Also, the inhibition at 1 µM at hPDE8B (at 1 μmol/L) was 73%.
For `CC1(C)CCCN(c2nnc3c(N)ncc(C#N)n23)C1` [Example 2, 8-amino-3-(3,3-dimethylpiperidin-1-yl) [1,2,4]triazolo[4,3-a]pyrazine-5-carbonitrile], the IC50 was found to be 0.0007 µM on Human PDE7B (hPDE7B), 1.62 µM on hPDE8B and 6.23 µM on hPDE10A. The inhibition at 1 µM on hPDE4D (setting [1]) worked out at 61%.
`C[C@H]1CC[C@H](n2nnc3c(N)ncnc32)CC1` [Example 8, 3-(trans-4-methylcyclohexyl)-3H-[1,2,3]triazolo[4,5-d]pyrimidin-7-amine]: the 50% inhibitory concentration (IC50) came out at 0.01 µM on Human PDE7B (hPDE7B), 2.13 µM at hPDE4D and 0.24 µM on hPDE8B. In addition, the inhibition at 10 µM at hPDE10A was 48%.
For the molecule `Nc1nccn2c(C3CC4(CC4)C3)nnc12` [Example 20], the IC50 came out at 0.08 µM against Human PDE7B (hPDE7B) and 1.58 µM at hPDE8B. Moreover, the inhibition at 10 µM on hPDE4D (at 10 μmol/L, read-out: inhibition rate (%) at prescribed concentration, PDE4) amounted to 40%; on hPDE10A, 22%.
For the molecule `C[C@@H]1CCCCN1c1nnc2c(N)nccn12` [Example 22, 3-(2-methylpiperidin-1-yl) [1,2,4]triazolo[4,3-a]pyrazin-8-amine], the IC50 against Human PDE7B (hPDE7B) came out at 0.04 µM; at hPDE4D it was 8.3 µM; at hPDE8B it was 5.8 µM; on hPDE10A it was 5.5 µM.
As for `CC1CCCN(c2nnc3c(N)nccn23)C1` (stereo not drawn) [Example 24], the IC50 against Human PDE7B (hPDE7B) was 0.07 µM; on hPDE4D it was 6.3 µM; at hPDE8B, 1.6 µM; at hPDE10A, 12.9 µM.
Take `CC1(C)CCCN(c2nnc3c(N)nccn23)C1` [Example 26, 3-(3,3-dimethylpiperidin-1-yl) [1,2,4]triazolo[4,3-a]pyrazin-8-amine]: the IC50 at Human PDE7B (hPDE7B) stood at 0.02 µM; on hPDE4D, 4.59 µM; at hPDE8B, 7.66 µM; at hPDE10A it was 21.1 µM.
For `CC1CCN(c2nnc3c(N)nccn23)CC1` [Example 28] the same measures were 0.09 µM, 4.3 µM, 3.7 µM and 28.4 µM.
Turning to `Nc1nccn2c(N3CCCCCC3)nnc12` [Example 29], the IC50 at Human PDE7B (hPDE7B) is 0.08 µM; on hPDE4D, 5.4 µM; on hPDE8B, 5.1 µM; on hPDE10A, 11.9 µM.
Turning to `CC(C)(C)OC(=O)N1CCCCC1c1nnc2c(N)nccn12` (stereo not drawn) [Example 32, tert-butyl 2-(8-amino-[1,2,4]triazolo[4,3-a]pyrazin-3-yl)piperidine-1-carboxylate], the IC50 against Human PDE7B (hPDE7B) is 0.08 µM; on hPDE4D, 5.78 µM; at hPDE8B, 2.27 µM; on hPDE10A, 22.6 µM.
For `Nc1nccn2c(N3CCCCC34CC4)nnc12` [Example 38], in that order: 0.08 µM, 5.21 µM, 2.74 µM and 25 µM.
For `CCc1cnc(N)c2nnc(N3CCCC(C)(C)C3)n12` [Example 42, 3-(3,3-dimethylpiperidin-1-yl)-5-ethyl[1,2,4]triazolo[4,3-a]pyrazin-8-amine] the same measures were less than 0.01 µM, 3 µM, 1.7 µM and 5.2 µM.
For `CC1(C)CCCN(c2nnc3c(N)ncc(C4CC4)n23)C1` [Example 43, 5-cyclopropyl-3-(3,3-dimethylpiperidin-1-yl) [1,2,4]triazolo[4,3-a]pyrazin-8-amine] the same measures were 0.03 µM, 2.19 µM, 1.52 µM and 2.33 µM.
With `Nc1nccn2c(N3CCCC4(CC4)C3)nnc12` [Example 44], the IC50 at Human PDE7B (hPDE7B) turned out to be 0.08 µM; on hPDE4D it was 7.85 µM; at hPDE8B, 5.51 µM; at hPDE10A, 24.1 µM.
Consider `Nc1nccn2c(N3CCCC(C(F)(F)F)C3)nnc12` (stereo not drawn) [Example 46], for which the IC50 on Human PDE7B (hPDE7B) turned out to be 0.08 µM; on hPDE4D, 56.9 µM; on hPDE8B, 7.7 µM; at hPDE10A, 34.5 µM.
